Assay results as given in ChEMBL document CHEMBL6078713, “Synthesis and mechanistic studies of 4-aminoquinoline-Isatin molecular hybrids and Schiff's bases as promising antimicrobial agents” (Eur J Med Chem, 2025).

Test system: Escherichia coli
Assay: Antibacterial activity against Escherichia coli clinical isolate ECJH24 assessed as diameter of zone of inhibition by disk diffusion assay
Assay type: functional

O=[N+]([O-])c1ccccc1/C=N/CCNc1ccnc2cc(Cl)ccc12 was tested, and the “diameter of the inhibition zone (DIZ)” value was 13 mm.
